# Measurements published in PubChem BioAssay AID2060493 (Molecular Pharmacology Branch, DTP, NCI, 2025).
# Test system: 616215-338-R-J1-PDC tumor spheroids, viability
# Experiment: Anticancer human tumor 616215-338-R-J1-PDC patient-derived colon adenocarcinoma cell line growth inhibition [GQUAD]
# Details: spheroids with HUVEC and MSC; for IC50: curve of first compound; for viability, T/C: stronger effect = lower value
# Procedure, shortened: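 Tumor cells were grown as complex spheroids with HUVEC endothelial cells and mesenchymal stem cells as stroma. G-quadruplex stabilizers were combined with targeted agents over half-log dilutions from near the clinical Cmax, or from 10 microM.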
# [1] = second compound 0.0316 µM, first compound 0.0316 µM
# [2] = second compound 0.0316 µM, first compound 0.1 µM
# [3] = second compound 0.0316 µM, first compound 0.316 µM
# [4] = second compound 0.0316 µM, first compound 1 µM
# [5] = second compound 0.0316 µM, first compound 3.16 µM
# [6] = second compound 0.0316 µM, first compound 10 µM
# [7] = second compound 0.1 µM, first compound 0.0316 µM
# [8] = second compound 0.1 µM, first compound 0.1 µM
# [9] = second compound 0.1 µM, first compound 0.316 µM
# [10] = second compound 0.1 µM, first compound 1 µM
# [11] = second compound 0.1 µM, first compound 3.16 µM
# [12] = second compound 0.1 µM, first compound 10 µM
# [13] = second compound 0.316 µM, first compound 0.0316 µM
# [14] = second compound 0.316 µM, first compound 0.1 µM
# [15] = second compound 0.316 µM, first compound 0.316 µM
# [16] = second compound 0.316 µM, first compound 1 µM
# [17] = second compound 0.316 µM, first compound 3.16 µM
# [18] = second compound 0.316 µM, first compound 10 µM
# [19] = second compound 1 µM, first compound 0.0316 µM
# [20] = second compound 1 µM, first compound 0.1 µM
# [21] = second compound 1 µM, first compound 0.316 µM
# [22] = second compound 1 µM, first compound 1 µM
# [23] = second compound 1 µM, first compound 3.16 µM
# [24] = second compound 1 µM, first compound 10 µM
# [25] = second compound 3.16 µM, first compound 0.0316 µM
# [26] = second compound 3.16 µM, first compound 0.1 µM
# [27] = second compound 3.16 µM, first compound 0.316 µM
# [28] = second compound 3.16 µM, first compound 1 µM
# [29] = second compound 3.16 µM, first compound 3.16 µM
# [30] = second compound 3.16 µM, first compound 10 µM
# [31] = second compound 10 µM, first compound 0.0316 µM
# [32] = second compound 10 µM, first compound 0.1 µM
# [33] = second compound 10 µM, first compound 0.316 µM
# [34] = second compound 10 µM, first compound 1 µM
# [35] = second compound 10 µM, first compound 3.16 µM
# [36] = second compound 10 µM, first compound 10 µM
# 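Further: spheroids exposed to agents for 7 days before readout.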
# 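Wherever viability, T/C is given: percent viability relative to DMSO vehicle control wells taken as 100%.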
smiles,measurement,setting,value
C=CC(=O)N1CCN(c2nc(=O)n(-c3c(C)ccnc3C(C)C)c3nc(-c4c(O)cccc4F)c(F)cc23)C(C)C1 (stereo not drawn) + CN(C)c1ccc(Nc2c3ccc(NC(=O)CCN4CCCC4)cc3nc3cc(NC(=O)CCN4CCCC4)ccc23)cc1,IC50,second compound 0.0316 µM,> 10 µM
same,IC50,second compound 0.1 µM,> 10 µM
same,IC50,second compound 0.316 µM,> 10 µM
same,IC50,second compound 1 µM,> 10 µM
same,IC50,second compound 3.16 µM,> 10 µM
same,IC50,second compound 10 µM,> 10 µM
same,"viability, T/C",[1],96.3%
same,"viability, T/C",[2],104%
same,"viability, T/C",[3],103%
same,"viability, T/C",[4],102%
same,"viability, T/C",[5],94.2%
same,"viability, T/C",[6],72%
same,"viability, T/C",[7],110%
same,"viability, T/C",[8],89.6%
same,"viability, T/C",[9],100%
same,"viability, T/C",[10],98%
same,"viability, T/C",[11],95.4%
same,"viability, T/C",[12],64.8%
same,"viability, T/C",[13],93%
same,"viability, T/C",[14],107%
same,"viability, T/C",[15],94.9%
same,"viability, T/C",[16],103%
same,"viability, T/C",[17],89%
same,"viability, T/C",[18],70.6%
same,"viability, T/C",[19],98.7%
same,"viability, T/C",[20],100%
same,"viability, T/C",[21],102%
same,"viability, T/C",[22],91.9%
same,"viability, T/C",[23],91.6%
same,"viability, T/C",[24],69.1%
same,"viability, T/C",[25],102%
same,"viability, T/C",[26],86.7%
same,"viability, T/C",[27],94.9%
same,"viability, T/C",[28],95%
same,"viability, T/C",[29],80.2%
same,"viability, T/C",[30],63.9%
same,"viability, T/C",[31],98.1%
same,"viability, T/C",[32],85.7%
same,"viability, T/C",[33],86.3%
same,"viability, T/C",[34],86.8%
same,"viability, T/C",[35],70.3%
same,"viability, T/C",[36],55.2%
CC(C)n1c(=O)n(C)c2cnc3cc(F)c(-c4ccc(OCCCN5CCCCC5)nc4)cc3c21 + CN(C)c1ccc(Nc2c3ccc(NC(=O)CCN4CCCC4)cc3nc3cc(NC(=O)CCN4CCCC4)ccc23)cc1,IC50,second compound 0.0316 µM,> 10 µM
same,IC50,second compound 0.1 µM,> 10 µM
same,IC50,second compound 0.316 µM,> 10 µM
same,IC50,second compound 1 µM,> 10 µM
same,IC50,second compound 3.16 µM,9.93 µM
same,IC50,second compound 10 µM,3.09 µM
same,"viability, T/C",[1],110%
same,"viability, T/C",[2],112%
same,"viability, T/C",[3],96.3%
same,"viability, T/C",[4],109%
same,"viability, T/C",[5],105%
same,"viability, T/C",[6],62.2%
same,"viability, T/C",[7],110%
same,"viability, T/C",[8],104%
same,"viability, T/C",[9],101%
same,"viability, T/C",[10],111%
same,"viability, T/C",[11],103%
same,"viability, T/C",[12],81.1%
same,"viability, T/C",[13],97.2%
same,"viability, T/C",[14],99.7%
same,"viability, T/C",[15],97.8%
same,"viability, T/C",[16],103%
same,"viability, T/C",[17],121%
same,"viability, T/C",[18],95.7%
same,"viability, T/C",[19],101%
same,"viability, T/C",[20],97.2%
same,"viability, T/C",[21],103%
same,"viability, T/C",[22],97.9%
same,"viability, T/C",[23],111%
same,"viability, T/C",[24],83.5%
same,"viability, T/C",[25],105%
same,"viability, T/C",[26],101%
same,"viability, T/C",[27],101%
same,"viability, T/C",[28],91.9%
same,"viability, T/C",[29],100%
same,"viability, T/C",[30],49.6%
same,"viability, T/C",[31],95.8%
same,"viability, T/C",[32],77.1%
same,"viability, T/C",[33],55.6%
same,"viability, T/C",[34],64.6%
same,"viability, T/C",[35],61.6%
same,"viability, T/C",[36],7.08%
Cc1cccc(N(C)C(=O)C2C(O)CCN2c2nc(C)cc(C(F)(F)F)c2C#N)c1 (stereo not drawn) + CN(C)c1ccc(Nc2c3ccc(NC(=O)CCN4CCCC4)cc3nc3cc(NC(=O)CCN4CCCC4)ccc23)cc1,IC50,second compound 0.0316 µM,> 10 µM
same,IC50,second compound 0.1 µM,> 10 µM
same,IC50,second compound 0.316 µM,> 10 µM
same,IC50,second compound 1 µM,> 10 µM
same,IC50,second compound 3.16 µM,> 10 µM
same,IC50,second compound 10 µM,3.12 µM
same,"viability, T/C",[1],111%
same,"viability, T/C",[2],97.9%
same,"viability, T/C",[3],103%
same,"viability, T/C",[4],103%
same,"viability, T/C",[5],105%
same,"viability, T/C",[6],109%
same,"viability, T/C",[7],102%
same,"viability, T/C",[8],101%
same,"viability, T/C",[9],108%
same,"viability, T/C",[10],101%
same,"viability, T/C",[11],104%
same,"viability, T/C",[12],96.2%
same,"viability, T/C",[13],104%
same,"viability, T/C",[14],99.5%
same,"viability, T/C",[15],104%
same,"viability, T/C",[16],107%
same,"viability, T/C",[17],114%
same,"viability, T/C",[18],110%
same,"viability, T/C",[19],100%
same,"viability, T/C",[20],99.1%
same,"viability, T/C",[21],106%
same,"viability, T/C",[22],97.8%
same,"viability, T/C",[23],102%
same,"viability, T/C",[24],98.7%
same,"viability, T/C",[25],98.6%
same,"viability, T/C",[26],93.1%
same,"viability, T/C",[27],103%
same,"viability, T/C",[28],102%
same,"viability, T/C",[29],88.2%
same,"viability, T/C",[30],88.9%
same,"viability, T/C",[31],102%
same,"viability, T/C",[32],78.2%
same,"viability, T/C",[33],80.2%
same,"viability, T/C",[34],63.5%
same,"viability, T/C",[35],49%
same,"viability, T/C",[36],36.6%
O=C(c1cc(Cc2n[nH]c(=O)c3ccccc23)ccc1F)N1CCN(C(=O)C2CC2)CC1 + CN(C)c1ccc(Nc2c3ccc(NC(=O)CCN4CCCC4)cc3nc3cc(NC(=O)CCN4CCCC4)ccc23)cc1,IC50,second compound 0.0316 µM,> 10 µM
same,IC50,second compound 0.1 µM,> 10 µM
same,IC50,second compound 0.316 µM,> 10 µM
same,IC50,second compound 1 µM,> 10 µM
same,IC50,second compound 3.16 µM,> 10 µM
same,IC50,second compound 10 µM,> 10 µM
same,"viability, T/C",[1],100%
same,"viability, T/C",[2],95.7%
same,"viability, T/C",[3],103%
same,"viability, T/C",[4],111%
same,"viability, T/C",[5],110%
same,"viability, T/C",[6],71.9%
same,"viability, T/C",[7],103%
same,"viability, T/C",[8],102%
same,"viability, T/C",[9],104%
same,"viability, T/C",[10],103%
same,"viability, T/C",[11],111%
same,"viability, T/C",[12],74.8%
same,"viability, T/C",[13],104%
same,"viability, T/C",[14],114%
same,"viability, T/C",[15],112%
same,"viability, T/C",[16],106%
same,"viability, T/C",[17],99.3%
same,"viability, T/C",[18],68.6%
same,"viability, T/C",[19],108%
same,"viability, T/C",[20],100%
same,"viability, T/C",[21],96.9%
same,"viability, T/C",[22],97.3%
same,"viability, T/C",[23],104%
same,"viability, T/C",[24],69%
same,"viability, T/C",[25],112%
same,"viability, T/C",[26],97.8%
same,"viability, T/C",[27],98.8%
same,"viability, T/C",[28],109%
same,"viability, T/C",[29],105%
same,"viability, T/C",[30],57.4%
same,"viability, T/C",[31],96.6%
same,"viability, T/C",[32],82.9%
same,"viability, T/C",[33],99.3%
same,"viability, T/C",[34],99.6%
same,"viability, T/C",[35],67%
same,"viability, T/C",[36],54.9%
